Data set [1] can be described thus: Stability of additive with paclitaxel under ethylene oxide sterilization, heating and aging. Conditions: additive formulated with paclitaxel; reacted with paclitaxel. It counts as physicochemical.
For data set [2] the following is noted: cited from earlier work.
For a further data set, the target named is albumin (Homo sapiens, UniProt P02768). The note with it: cited from earlier work.
albumin, sequence (P02768 25-609): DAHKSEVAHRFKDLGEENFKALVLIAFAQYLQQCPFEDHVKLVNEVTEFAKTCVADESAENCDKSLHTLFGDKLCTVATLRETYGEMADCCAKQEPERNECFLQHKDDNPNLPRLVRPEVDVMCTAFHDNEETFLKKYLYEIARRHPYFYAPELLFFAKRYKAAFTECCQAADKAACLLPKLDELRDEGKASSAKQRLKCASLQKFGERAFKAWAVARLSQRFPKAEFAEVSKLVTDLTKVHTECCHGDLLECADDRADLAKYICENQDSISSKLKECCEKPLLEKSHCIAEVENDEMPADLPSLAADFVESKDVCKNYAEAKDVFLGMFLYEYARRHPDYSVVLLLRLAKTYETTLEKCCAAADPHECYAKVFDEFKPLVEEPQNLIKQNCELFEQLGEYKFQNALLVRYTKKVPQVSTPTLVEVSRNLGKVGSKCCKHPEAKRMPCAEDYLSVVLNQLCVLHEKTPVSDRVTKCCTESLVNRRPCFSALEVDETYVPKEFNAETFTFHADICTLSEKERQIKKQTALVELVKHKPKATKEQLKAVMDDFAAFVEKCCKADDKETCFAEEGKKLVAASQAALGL

With `OCCNCCO` [diethanolamine], the “stability under ethylene oxide sterilization, heating, and aging process” value (from here on “stability”) in data set [1] was “not stable”.

As for `O=C(O)c1ccccc1` [benzoic acid], the “stability” value in data set [1] is given as “not stable”.

Take `O=C1O[C@H]([C@@H](O)CO)C(O)=C1O` [ascorbic acid]: the “stability” value in data set [1] is “not stable”.

Consider `O=C(O)c1cc(O)ccc1O` [gentisic acid], for which the “stability” value in data set [1] is reported as “not stable”.

One may read the log P as the decadic logarithm of the partition coefficient of the neutral form, usually between octanol and water. On to `COc1ccc(O)c(C(C)(C)C)c1` [Butylated hydroxyanisole (BHA), Butylated hydroxyanisole], for which the “log P” value in data set [2] is 1.31.

On to PEG-20 sorbitan monolaurate [Tween 20], for which, in data set [2], the “log P” value is “about 3.0”.

For the compound `CO[C@H]1C[C@@H]2CC[C@@H](C)[C@@](O)(O2)C(=O)C(=O)N2CCCC[C@H]2C(=O)O[C@H]([C@H](C)C[C@@H]2CC[C@@H](O)[C@H](OC)C2)CC(=O)[C@H](C)/C=C(\C)[C@@H](O)[C@@H](OC)C(=O)[C@H](C)C[C@H](C)/C=C/C=C/C=C/1C` [rapamycin], the protein bound on albumin is reported as 92%.

These data come from patent US10835719B2, “Drug releasing coatings for medical devices” (Lutonix, Inc., priority 2006, dated 2020).
